Reference: patent US20240400572A1, “COMPOUNDS AND METHODS FOR TREATING CANCERS THAT ARE MGMT DEFICIENT REGARDLESS OF MMR STATUS” (Yale University, priority 2021, published 2024)

Tests used:
[1] = system: Isogenic glioma (Ln 229) cells, MGMT−/MMR−; assay: Clonogenic Survival Assay (FIG. 9); assay type: cell-based, human; details: identical concentrations of test compound
Method: Clonogenic Survival Assay (FIG. 9): Isogenic glioma (Ln 229) cells were pretreated with the test drug in culture for 48-72 hours at the specified dilutions. Cells were then transferred in media without drug to 6-well plates in triplicate at 3-fold dilutions ranging from 9,000 to 37 cells per well. After 14 days, plates were washed with PBS and stained with crystal violet. Colonies were counted by hand. Counts were normalized to plating efficiency of the corresponding treatment condition.

[2] = system: γH2AX, 53BP1 and pRPA foci in LN229 MGMT+/−, MMR+/− cells; assay: Immunofluorescence foci assays; assay type: cell-based, human; details: 20 μM; for γH2AX, 53BP1 and pRPA foci formation (in words): 2 to 48 h; for DDR foci across cell cycle phases (in words): 48 h, G1, S and G2 phases
Method: Immunofluorescence Foci Assays. High-throughput immunofluorescence foci assays were performed at the Yale Center for Molecular Discovery (YCMD). Cells were seeded at 2000 cells/well in black polystyrene flat bottom 384-well plates (Greiner Bio-One) and allowed to adhere overnight. Compound addition was performed utilizing a Labcyte Echo 550 liquid handler (Beckman Coulter), with 6 replicates per test condition and 12 replicates per control condition. Following drug incubation, cells were fixed and stained for phospho-SER139-H2AX (γH2AX), 53BP1, or phospho-SER33-RPA2 (pRPA) as follows.
γH2AX protocol: Cells were fixed with 4% paraformaldehyde in 1×PBS for 15 min, washed twice with 1×PBS, incubated in extraction buffer (0.5% Triton X-100 in 1×PBS) for 10 min, washed twice with 1×PBS, and incubated in blocking buffer (Blocker Casein in PBS, Thermo Scientific+5% goat serum, Life Technologies) for 1 h. Mouse anti-phospho-histone H2A.X (Ser139) antibody (clone JBW301, Millipore, 05-636) was added 1/1000 in blocking buffer at 4° C. overnight. After washing with 1×PBS, cells were incubated with goat anti-mouse IgG (H+L) highly cross-adsorbed secondary antibody, Alexa Fluor 647 (Invitrogen, A-21236) 1/500 and with 1 μg/mL Hoechst nucleic acid dye in blocking buffer for 2 h, and then washed with 1×PBS.
53BP1 protocol: Cells were fixed with 4% paraformaldehyde+0.02% Triton X-100 in 1×PBS for 20 minutes, washed twice with 1×PBS, and incubated in blocking buffer (10% FBS, 0.5% Triton X-100 in 1×PBS) for 1 h. Rabbit anti-53BP1 antibody (Novus Biologicals, NB100-904) was added 1/1000 in blocking buffer at 4° C. overnight. After washing with 1×PBS, cells were incubated with goat anti-rabbit IgG (H+L) highly cross-adsorbed secondary antibody, Alexa Fluor 647 (Invitrogen, A-21245) 1/500 and with 1 μg/mL Hoechst nucleic acid dye in blocking buffer for 2 h, and then washed with 1×PBS.
pRPA protocol: Cells were washed twice with 1×PBS on ice, incubated in extraction buffer (0.5% Triton X-100 in 1×PBS) for 5 min on ice, fixed with 3% paraformaldehyde+2% sucrose in 1×PBS for 15 min at 23° C., incubated again in extraction buffer for 5 min on ice, and incubated in blocking buffer (2% BSA, 10% milk, 0.1% Triton X-100 in 1×PBS) for 1 h at 23° C. Rabbit anti-phospho-RPA2 (S33) antibody (Bethyl Laboratories, A300-246A) was added 1/1000 in blocking buffer at 4° C. overnight. […]
Additional small scale immunofluorescence assays used for extended time course analysis of γH2AX foci were performed in Millicell EZSLIDE 8-well chamber slides (Millipore). […] Imaging was performed on a Keyence BZ-X800 fluorescence microscope at 40× magnification. […]

Row | SMILES | cells survived (fraction) [1] | γH2AX, 53BP1 and pRPA foci formation (in words) [2] | DDR foci across cell cycle phases (in words) [2] | cells survived [1]
1 | NC(=O)c1ncn2c(=O)n(CCF)nnc12 [KL-50, 3-(2-fluoroethyl)-4-oxo-3H,4H-imidazo[4,3-d][1,2,3,5]tetrazine-8-carboxamide] | less than 10^−4 | maximal foci response at 48 h, specifically in MGMT− cells and irrespective of MMR status | foci formation primarily in the S- and G2-phases of the cell cycle | 
2 | Cn1nnc2c(C(N)=O)ncn2c1=O [TMZ, temozolomide, reference compound] |  | comparable response in MGMT− cells, but this was abolished in the absence of functional MMR | did not observe foci induction or micronuclei formation in MGMT−/MMR− cells | about 100%
